From patent publication US20060094693A1, “Methods and compositions for treating glucose-associated conditions, metabolic syndrome, dyslipidemias and other conditions” (Point Therapeutics, Inc., priority 2004, published 2006)

How the values were obtained:
[1] = biological target: T1, soluble recombinant human DPP-IV (Homo sapiens, UniProt P27487); test: In vitro assay of enzymatic activity of recombinant soluble DPP-IV and inhibition by amino boronic dipeptides; assay type: biochemical; conditions: assayed 3 minutes, 78 minutes and 16 hours after addition of Ala-Pro-AFC
T1 construct: immunoglobulin kappa light chain secretion signal (pSecTag2-B) (N, cleaved yes); made in house; host or cells: 293T cells, transient transfection; unpurified culture supernatant used
Text: Production of soluble recombinant human DPP-IV. Based on information on the N-terminus of serum DPP-IV (15), a truncated DPP-IV was engineered in which a signal/leader sequence was joined to the residue in DPP-IV corresponding to the N-terminus of serum DPP-IV to allow secretion. The cDNA encoding the desired truncated human DPP-IV dimer enzyme was engineered into the mammalian secretion vector pSecTag2 (Cat# V900-20, InVitrogen Corporation). The vector, available in A, B or C versions, representing three possible phases for gene fusion, contained an immunoglobulin-kappa light chain secretion signal followed by a selection of restriction sites for gene insertion. The fusion required engineering a restriction site upstream of the chosen fusion amino acid in the 5′ end of the DPP-IV dimer enzyme nucleic acid in phase with the chosen restriction site (Sfi I) in the vector secretion sequence. The chosen fusion amino acid in the 5′ end of the DPP-IV (Ser39) was 3′ of the trans-membrane anchoring domain. The pSecTag2 version B and its Sfi I restriction site was chosen for the fusion because it minimizes the additional N-terminal, vector-encoded residues in the mature secreted protein.
Construction of the fusion was as follows. First, total RNA was isolated from the Caco-2 colorectal carcinoma cell line (ATCC HTB-37) by standard Trizol/phenol/chloroform methodology. The purified RNA (approx. 2.5 μg in a 20 μl reaction) was used to make cDNA using oligo-dT primer and a commercial reverse transcription (RT) kit (InVitrogen). […] The following thermal cycler program was used: 94° C. for 45 sec. initial denaturation, then 30 cycles of 94° C., 10 sec.; 48° C., 6 sec.; 60° C., 4 min; followed by 5-min. extension at 72° C. after cycling.
DNA from the plasmid encoding DPP-IV dimer enzyme was prepared on an approximately 400 μg scale from overnight 30 ml cultures in Luria broth with 100 μg ampicillin per ml using a commercial kit (Qiagen Maxiprep Kit).
In vitro assay of enzmatic activity ofrecombinant soluble DPP-IV and inhibition by amino boronic dipeptides. The assay reaction mixture consisted of 135 μl 50 mM HEPES/Na buffer pH 7.6, 140 mM NaCl, 10-15 gl enzyme-containing culture supernatant, dipeptide substrate Ala-Pro-(7-amino-4-trifluoromethyl coumarin) (Ala-Pro-AFC; Enzyme System Products, Dublin, Calif.) at typically 0.1-1 mM added from a 100 or 400 mM stock in dimethyl formamide. The reaction mixture was incubated at room temperature, and production of the fluorescent AFC product was measured in a fluorometer (excitation, 400 nm; emission 505 nm), either by continuous monitoring or after termination with a one to one-tenth volume of 1 -M sodium acetate, pH 4.5. Fluorometric reading were made with a Molecular Dynamics Spectra Max GeminiXS capable of reading 96-well microtiter plates. The inhibitory activity of amino boronic dipeptides was investigated by preincubation of assay reaction mixtures with varying concentrations of each compound for 10 minutes before the addition of the substrate Ala-Pro-AFC.

[2] = biological target: T2, serum DPP-IV (Mus musculus, UniProt P28843); test: Serum DPP-IV inhibition in vivo after oral gavage (Example 2); parameters: species or system BALB/c mice
T2 construct: from tissue; host or cells: serum of BALB/c mice dosed orally
Protocol: Assay of serum DPP-IV inhibition in vivo. […] DPP-IV activity was determined by reaction of 10 μl serum with 90 μl of 0.11 mM Ala-Pro-AFC (Enzyme System Products, Dublin, Calif.) in 50 mM HEPES/Na buffer pH 7.6, 140 mM NaCl.

[3] = biological target: T2, serum DPP-IV; test: Serum DPP-IV activity 2 hours after oral amino boronic dipeptides (Example 4); assay type: in vivo, BALB/c mice; conditions: 20 and 200 μg doses
Protocol: (§1) Assay ofserum DPP-IV inhibition and KC/CXCL1 levels in vivo. […] Each mouse received a single administration of each amino boronic dipeptide or saline, and blood samples were withdrawn from mice 2 hours later.
Serum DPP-IV activity was determined by reaction of a 10 μl volume of serum with 0.1 mM Ala-Pro-AFC (Enzyme System Products, Dublin, Calif.) in a 100 μl volume of 50 mM HEPES/Na buffer pH 7.6, 140 mM NaCl. […] Serum DPP-IV activity was expressed as fluorescent units (FU).

[4] = tested on: serum KC/CXCL1; test: Serum KC/CXCL1 levels in vivo (ELISA); parameters: species or system BALB/c mice; conditions: 0.2-200 μg/mouse oral, 2 hours
Protocol: as §1
Serum concentration of mouse KC/CXCL1 was determined by Quantikine enzyme-linked immunosorbent assay (ELISA; R&D Systems, Minneapolis, Minn.) according to the manufacturer's instructions. ELISA was performed in duplicate for each sample.

[5] = in vivo; conditions: Lewis, rat, in vivo
Protocol: (§2) Serum DPP-IV inhibition and observation of acute toxicity of amino boronic dipeptides in Lewis rats. […] After observations were completed or at the onset of a moribund state, humane euthanasia was performed by asphyxiation in 100% CO2.

[6] = tested on: Lewis rats; test: in vivo; conditions: Lewis, rat, in vivo, 5 days
Protocol: as §2

[7] = tested on: ob/ob mice; test: Mouse oral glucose tolerance test (OGTT); assay type: in vivo
Protocol: Protocol for mouse oral glucose tolerance test (OGTT). The day of oral-glucose challenge was defined as day 0. […] Agents were administered by oral gavage. Mice were restricted to a diet of 50% of their individual calculated food intake from day −1 onwards. On day 0, blood glucose was measured at […]. immediately followed by drug administration. At time point 0, glucose was administered by oral gavage (1g/kg), and blood glucose was measured at time points 0, 30, 60, 120 and 240 minutes. Means±SE were calculated from the data of individual mice in drug-treatment groups 1 and 2.

[8] = tested on: Zucker fa/fa rats; test: Rat oral glucose tolerance test (glucose, insulin, GLP-1); assay type: in vivo; conditions: 10 μmol/kg oral
Text: Protocol for rat oral glucose tolerance test (OG7T). […] On days −11 to −8, rats were fitted with intra-arterial catheters under light isoflurane anesthesia. […] From 12:00 a.m.

[9] = tested on: Zucker Diabetic Fatty (ZDF) rats; test: 6 week glycemic control study in Zucker Diabetic Fatty rats; assay type: in vivo
Protocol: The design of the 6 week long study is depicted in FIG. 8. 60 male Zucker Diabetic Fatty (ZDF) rats (5 weeks of age) were obtained from Charles River Labs. The animals are housed singly and allowed to acclimatize for 1 week before the initiation of the study. 24-hour food intake and body weight was measured gravimetrically twice weekly from the start of housing. HbA1C levels were measured at Day 0, 7, 14, 28 and 46. OGTT was administered on Day 2-3, 15 minutes after the administration of the drugs. OGTT was administered again at the end of the study but in this case, drugs were given 15 hours prior to the OGTT. The 24-hour glucose profile was monitored at day 14-15 of the study.
The insulin sensitivity index was calculated at the termination of the study according to the method described by Matsuda and DeFronzo (Diabetes Care. 1999 Sep.;22(9):1462-70).

[10] = tested on: Zucker fa/fa rats; test: Single oral dose before oral glucose challenge, Zucker Fa/Fa rats (Example 10); assay type: in vivo; conditions: single oral dose 15 minutes prior to oral glucose
Text: The data shown in FIG. 15 are mean values from 6 rats per treatment.

[11] = tested on: DIO rats; test: Single oral dose before oral glucose challenge, DIO rats (Example 10); assay type: in vivo; conditions: single oral dose 15 minutes prior to oral glucose
Text: The data shown in FIG. 16A are mean values from 10 rats per treatment.
The data shown in FIG. 16B are mean values from 10 rats per treatment.

T2 sequence (P28843 37-760 limits assumed): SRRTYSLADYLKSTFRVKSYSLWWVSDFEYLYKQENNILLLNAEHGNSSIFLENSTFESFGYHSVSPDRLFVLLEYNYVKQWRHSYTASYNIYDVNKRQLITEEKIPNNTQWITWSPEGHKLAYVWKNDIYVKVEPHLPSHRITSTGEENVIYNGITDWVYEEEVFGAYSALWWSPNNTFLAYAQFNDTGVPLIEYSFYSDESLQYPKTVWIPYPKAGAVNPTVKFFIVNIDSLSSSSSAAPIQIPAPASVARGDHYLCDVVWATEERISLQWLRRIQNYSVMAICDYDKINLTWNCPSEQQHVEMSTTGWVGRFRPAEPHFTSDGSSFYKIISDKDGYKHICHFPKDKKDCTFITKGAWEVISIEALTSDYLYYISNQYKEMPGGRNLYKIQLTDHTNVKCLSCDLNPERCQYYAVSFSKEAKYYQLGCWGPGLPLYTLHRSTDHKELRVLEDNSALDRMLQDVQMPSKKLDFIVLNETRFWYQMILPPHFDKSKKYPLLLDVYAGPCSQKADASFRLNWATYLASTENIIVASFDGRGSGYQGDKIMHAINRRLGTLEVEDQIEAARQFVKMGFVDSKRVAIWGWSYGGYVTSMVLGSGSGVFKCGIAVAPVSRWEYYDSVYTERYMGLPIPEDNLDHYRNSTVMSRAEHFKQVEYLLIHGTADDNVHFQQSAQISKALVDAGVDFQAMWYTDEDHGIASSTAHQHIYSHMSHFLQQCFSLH
T1 sequence (P27487 39-766 limits assumed): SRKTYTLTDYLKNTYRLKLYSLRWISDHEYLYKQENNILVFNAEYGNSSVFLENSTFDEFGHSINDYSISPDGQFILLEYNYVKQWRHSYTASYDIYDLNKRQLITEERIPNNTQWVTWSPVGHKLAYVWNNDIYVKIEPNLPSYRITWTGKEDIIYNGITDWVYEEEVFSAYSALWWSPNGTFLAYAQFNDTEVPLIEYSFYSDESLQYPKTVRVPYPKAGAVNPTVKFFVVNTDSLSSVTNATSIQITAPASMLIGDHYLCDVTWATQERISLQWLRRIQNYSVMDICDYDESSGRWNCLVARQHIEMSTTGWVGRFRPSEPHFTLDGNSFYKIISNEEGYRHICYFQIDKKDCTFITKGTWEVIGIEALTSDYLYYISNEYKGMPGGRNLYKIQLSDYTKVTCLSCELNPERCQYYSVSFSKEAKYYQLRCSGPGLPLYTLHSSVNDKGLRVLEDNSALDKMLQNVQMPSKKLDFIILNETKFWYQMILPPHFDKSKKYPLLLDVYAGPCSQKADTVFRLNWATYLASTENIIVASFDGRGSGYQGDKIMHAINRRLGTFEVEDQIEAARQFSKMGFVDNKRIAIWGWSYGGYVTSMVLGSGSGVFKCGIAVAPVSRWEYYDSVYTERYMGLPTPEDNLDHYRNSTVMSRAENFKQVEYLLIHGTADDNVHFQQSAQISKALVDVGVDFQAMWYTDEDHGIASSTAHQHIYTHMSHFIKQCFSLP

Structure (SMILES): N[C@@H](CCC(=O)O)C(=O)N1CCC[C@H]1B(O)O [Glu-boroPro, glutamic acid boroproline]
- persistence of DPP-IV inhibition after preincubation [1]: sustained DPP-IV inhibition
- ID50 (dose reducing serum DPP-IV activity by 50% of baseline) ([2]; BALB/c mice, single oral dose, 2 hours): 1 μg per mouse
- serum DPP-IV inhibition persisting ([2]; single oral 5 μg or 20 μg per mouse, until at least 6 hours): greater than 80%
- serum DPP-IV activity [3]: maximally inhibited serum DPP-IV activity
- serum levels of KC/CXCL1 [4]: failed to affect serum levels of KC/CXCL1 at any of the doses tested
- MTD at 5 days [5]: 15 mg/kg
- MTD (maximum tolerated dose) [6]: 15,000 μg/kg
- glucose excursion post oral glucose challenge ([7]; 1.0 μmol/kg oral, 15 minutes prior to glucose): reduced
- anti-glycemic effect, area under the blood glucose curve ([7]; single 1.0 μmol/kg dose): significant
- blood glucose excursion ([8]; 15 min before glucose 2 g/kg): reduced
- blood plasma level of GLP-1 ([8]; after oral glucose challenge): increased
- blood plasma level of insulin ([8]; after oral glucose challenge): increased
- AUC of 24 hour glucose profile ([9]; 10 μmole/kg, day 14-15): achieve significance
- triglyceride (TG) lowering ([9]; 3 micromole/kg, 46 days of treatment): significant improvement
- food intake over time ([9]; 10 micromole/kg): apparent slight decrease in food intake
- triglyceride (TG) lowering ([9]; 10 micromole/kg, 46 days of treatment): significant improvement
- HbA1C level compared to vehicle ([9]; 10 micromole/kg, Day 46): significant reduction
- OGTT glucose levels compared to vehicle ([9]; 10 micromole/kg, OGTT 15 hours after drug, end of study): significant reduction in glucose levels
- 24-hour glucose profile ([9]; 10 micromole/kg, day 14-15): improved compared to the metformin and the NVP-LAF237 groups
- rate of increase in HbA1C over time ([9]; 10 micromoles/kg, Day 0 to Day 46): decline in the rate of increase in HbA1C was most prominent
- free fatty acids (FFA) ([9]; 46 days of treatment, compared to vehicle): trend towards free fatty acids (FFA) reduction but this did not reach significance
- insulin response [10]: improved insulin response
- insulin response [11]: improved insulin response
- insulin secretion calculated from AUC [11]: increased insulin secretion
